{
  "source": "patent US8008093B2",
  "about": "“Inhibition of Hsp27 phosphorylation for the treatment of blistering disorders” (The University of North Carolina at Chapel Hill, priority 2004, dated 2011)",
  "key": {"HSP27": {"test_system": "HSP27", "assay": "PV IgG induced HSP27 phosphorylation in keratinocytes, immunoblot", "settings": "preincubated 60 mins at 37° C. with inhibitor, then 25 μM PV IgG 30 mins", "procedure": "Cells were preincubated for 60 minutes at 37° C. with the p38MAPK inhibitors SB202190 or SB203580, the protein kinase C inhibitors Calphostin C or H-7, or the phospholipase C inhibitor U-73122. PV IgG (25 μM) was then added and the cells were incubated for 30 mins at 37° C., and harvested in IEF lysis buffer. Extracts were separated on 10% SDS-PAGE gels followed by immunoblotting with anti-HSP27 and anti-phosphoHSP27 antibodies.\nFor inhibition studies, keratinocytes were preincubated for 60 mins at 37° C. with the p38MAPK inhibitors SB202190 (100 μM) or H-7 (10 μM), or the phospholipase C inhibitor U-73122 (4 μM), after which PV IgG was added to a final concentration of 25 μM, the cells incubated for 30 mins at 37° C., and harvested in IEF lysis buffer."}, "[1]": {"test_system": "epidermal keratinocyte cell membranes", "assay": "Direct immunofluorescence of perilesional skin for bound PV IgG", "settings": "direct immunofluorescence of mouse skin, PV IgG+SB202190 vs PV IgG", "source_text": "Perilesional skin biopsies were examined by direct immunofluorescence for the presence of PV IgG bound to the epidermal epithelium."}, "HSP25": {"test_system": "HSP25", "assay": "HSP25 phosphorylation in mouse skin extracts, 2D immunoblot", "assay_type": "in vivo", "settings": "PV IgG 1.0 mg IgG/g intradermally; SB202190 6.25 μg twice; skin biopsies after 18 hours", "description": "Skin biopsies were obtained after 18 hours of treatment and extracted in IEF lysis buffer.\nFIG. 7C is an autoradiogram of an immunoblot showing cell extracts (30 μg) prepared and separated in the first dimension using 7 cm pH 4-7, non-linear IPGphor strips (Amersham Biosciences, Inc.) and in the second dimension by 10% SDS-PAGE followed by immunoblotting with antibodies to murine HSP25 using methods known in the art (see Berkowitz et al. (2005) J Biol Chem 280, 23778-23784). […] P values were calculated using student's T-test."}, "p38MAPK": {"test_system": "p38MAPK", "assay": "p38MAPK phosphorylation in mouse skin extracts, immunoblot", "assay_type": "in vivo", "settings": "PV IgG 1.0 mg IgG/g intradermally; SB202190 6.25 μg twice; skin biopsies after 18 hours", "source_text": "FIG. 7A is an immunoblot showing LDH control, PV IgG, and PV IgG+SB202190 first equally loaded on and separated by SDS-PAGE, transferred to PVDF, and immunoblotted with antibodies to p38MAPK, phospho-p38MAPK or lactate dehydrogenase (LDH) as a loading control. Blots were developed by ECL reaction (Amersham, Piscataway, N.J., United States of America).\nFIG. 7B is a bar graph illustrating signal intensity from the ECL reaction for each band from the immunoblot of FIG. 7A, quantified with a GeneGnome™ scanner (Syngene Bio Imaging, Frederick, Md., United States of America) using GeneSnap™ software (n=3, S.D. shown by error bars)."}, "neonatal C57BL/6J mice": {"test_system": "neonatal C57BL/6J mice", "assay": "Passive transfer PV mouse model, blister formation", "assay_type": "in vivo", "from_the_text": "The passive transfer PV mouse model developed by Anhalt and Diaz (Anhalt, et al. (1992) New England Journal of Medicine 306, 1189-1196) was used to test the hypothesis that p38MAPK inhibitors can block blister formation in vivo. In this model, the IgG fraction from patients and control non-affected normal individuals was purified and passively transferred into neonatal mice (Anhalt, et al. (1992) New England Journal of Medicine 306, 1189-1196; Rock, et al. (1990) J of Clinical Investigation 85, 296-299).\nFor in vivo inhibitor studies, the mice were injected intradermally with PV and normal IgG (1.0 or 1.5 mg/gram body weight) as disclosed in Mascaro et al. (Clin Immunology & Immunopathology 85, 90-96 (1997)). The P38 MAPK inhibitors were administered intradermally in two doses. In the first dose, 6.25 μg SB202190 was administered two hours prior to intradermal injection of IgG. In the second dose, 6.25 μg SB202190 was mixed with PV or control IgG and injected intradermally. Each animal received a total inhibitor dose of 12.5 μg."}, "keratinocytes": {"test_system": "keratinocytes", "assay": "Keratin and actin reorganization in keratinocytes, confocal microscopy", "assay_type": "cell-based, human", "settings": "25 μM PV IgG 6 hrs at 37° C.; SB202190 100 μM preincubated 60 mins", "description": "FIGS. 5A-5C are data showing that PV IgG induced cytoskeletal reorganization can be prevented by inhibiting p38MAPK. […] Cells were stained with the indicated antibodies or fluorescein-phalloidin and analyzed by confocal microscopy.\nAt 37° C. Cells were fixed and stained with flourescein conjugated phalloidin (Molecular Probes, Eugene, Oreg., United States of America), pancytokeratin antibodies (clone AE1/AE3, Zymed, San Francisco, Calif., United States of America), or goat anti-human E-cadherin antibodies (R & D Systems, mc, Minneapolis, Minn., United States of America) as previously described (Hu et al., (2001) Experimental Nephrology 9, 156-164), followed by Cy2 and Cy3 conjugated secondary antibodies (Jackson Laboratories, West Grove, Pa., United States of America). Images were analyzed using a Leica SP2 AOBS confocal microscope (Leica, Bannockburn, Ill., United States of America) with an excitation wavelength of 488 nm and capture at 500-550 nm or an excitation wavelength of 561 nm and capture at 590-650 nm using a 63×objective with NA 1.4. Double labeled samples were checked for bleed though by turning off the longer wavelength laser and assaying for the absence of image. For 3 dimensional image reconstructions, serial sections were scanned at 0.244 μm and rendered using the program Volocity Version 3 (Improvision, Lexington, Mass., United States of America)."}, "[2]": {"settings": "PV IgG intradermally, SB202190 two doses of 6.25 μg intradermally, after 18 hours"}, "[3]": {"settings": "histology, PV IgG intradermally, SB202190 two doses of 6.25 μg intradermally, after 18 hours"}},
  "note": "Entries after “also recorded” stand apart in the source; their conditions may differ.",
  "data": [
    {"compound": "Calphostin C", "values": [
      {"measurement": "inhibition of PV IgG induced HSP27 phosphorylation", "setting": "HSP27", "value": "No notable inhibition"}
    ]},
    {"compound": "CC1CNCCN1S(=O)(=O)c1cccc2cnccc12", "note": "(stereo not drawn) [H-7]", "values": [
      {"measurement": "inhibition of PV IgG induced HSP27 phosphorylation", "setting": "HSP27", "value": "No notable inhibition"}
    ]},
    {"compound": "Oc1ccc(-c2nc(-c3ccc(F)cc3)c(-c3ccncc3)[nH]2)cc1", "note": "[SB202190, 4-(4-Fluorophenyl)-2-(4-hydroxyphenyl)-5-(4-pyridyl)1H-imidazole]", "values": [
      {"measurement": "effect on binding of PV autoantibodies to epidermal keratinocyte cell surface", "setting": "[1]", "value": "did not prevent or alter the binding; also recorded: does not prevent binding"},
      {"measurement": "phosphorylation of the most negatively charged HSP25 isoform in skin extracts", "setting": "HSP25", "value": "inhibited; also recorded: blocked"},
      {"measurement": "p38MAPK phosphorylation in skin extracts", "setting": "p38MAPK", "value": "prevented; also recorded: blocked"},
      {"measurement": "suprabasal acantholysis leading to blister formation", "setting": "neonatal C57BL/6J mice; PV IgG 1 mg IgG/g body weight, skin biopsies, hematoxylin and eosin", "value": "blocked"},
      {"measurement": "Nikolsky's sign", "setting": "neonatal C57BL/6J mice; PV IgG 1.5 mg IgG/gram body weight intradermally, examined 18 hours later", "value": "negative Nikolsky's sign"},
      {"measurement": "blister development, clinically and histologically", "setting": "neonatal C57BL/6J mice; PV IgG 1.0 or 1.5 mg/gram body weight intradermally, SB202190 total 12.5 μg, after 18 hours", "value": "failed to develop blisters"},
      {"measurement": "Numbers of Mice with Nikolsky Sign: Nikolsky Negative", "setting": "neonatal C57BL/6J mice; [2]", "value": 11},
      {"measurement": "Numbers of Mice with Nikolsky Sign: Nikolsky Positive", "setting": "neonatal C57BL/6J mice; [2]", "value": 1},
      {"measurement": "Numbers of Mice with Suprabasilar Acantholysis: Blisters Present", "setting": "neonatal C57BL/6J mice; [3]", "value": 1},
      {"measurement": "Numbers of Mice with Suprabasilar Acantholysis: No Blisters", "setting": "neonatal C57BL/6J mice; [3]", "value": 11},
      {"measurement": "actin reorganization (phalloidin staining)", "setting": "keratinocytes", "value": "similarly prevented; also recorded: inhibited"},
      {"measurement": "keratin filament retraction", "setting": "keratinocytes", "value": "prevented"}
    ]},
    {"compound": "COc1ccc2c(c1)CC[C@@H]1[C@@H]2CC[C@]2(C)[C@@H](NCCCCCCN3C(=O)C=CC3=O)CC[C@@H]12", "note": "[U-73122]", "values": [
      {"measurement": "inhibition of PV IgG induced HSP27 phosphorylation", "setting": "HSP27", "value": "No notable inhibition"}
    ]}
  ]
}
